Source: PubChem BioAssay (NCI)
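Results reflect a 48-hour exposure of cells in 96-well plates to compound at five concentrations. The concentration for 50% growth inhibition is given as GI50. TGI: concentration producing complete growth inhibition.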

Tests used:
Test in all cases: DTP human tumour cell line panel, 48 h
OVCAR-8 ovarian = tested on: OVCAR-8 ovarian
MOLT-4 leukemia = tested on: MOLT-4 leukemia
OVCAR-3 ovarian = tested on: OVCAR-3 ovarian
SK-OV-3 ovarian = tested on: SK-OV-3 ovarian
T-47D breast = tested on: T-47D breast
PC-3 prostate = tested on: PC-3 prostate
MDA-MB-435 = tested on: MDA-MB-435
RXF 393 renal = tested on: RXF 393 renal
BT-549 breast = tested on: BT-549 breast
CCRF-CEM leukemia = tested on: CCRF-CEM leukemia

Compound | GI50 (OVCAR-8 ovarian) [µM] | TGI (OVCAR-8 ovarian) [µM] | GI50 (MOLT-4 leukemia) [µM] | TGI (MOLT-4 leukemia) [µM] | GI50 (OVCAR-3 ovarian) [µM] | TGI (OVCAR-3 ovarian) [µM] | GI50 (SK-OV-3 ovarian) [µM] | TGI (SK-OV-3 ovarian) [µM] | GI50 (T-47D breast) [µM] | TGI (T-47D breast) [µM] | GI50 (PC-3 prostate) [µM] | TGI (PC-3 prostate) [µM] | GI50 (MDA-MB-435) [µM] | TGI (MDA-MB-435) [µM] | GI50 (RXF 393 renal) [µM] | TGI (RXF 393 renal) [µM] | GI50 (BT-549 breast) [µM] | TGI (BT-549 breast) [µM] | GI50 (CCRF-CEM leukemia) [µM] | TGI (CCRF-CEM leukemia) [µM]
CC(C)c1ccc(/C=N/N=C(N)N)cc1 | 10.8 | 28.3 | 5.17 | 32.6 | 3.5 | 11.6 | 3.24 | 13 | 2.03 | 5.53 | 4.25 | 18.6 | 1.63 | 4.72 | 3.8 | 16.6 | 13.2 | 30 | 4.33 | 47.5
CNC(=O)/C(=C/c1ccc(OC)cc1)c1cc(OC)c(OC)c(OC)c1 |  | 55.3 |  | > 100 |  | 2.5 |  | 29 |  | > 100 |  | > 100 |  | 2.42 |  | 11.8 |  | > 100 |  | > 100
OCc1ncc(-c2ccccc2)s1 | > 100 | > 100 | > 100 | > 100 | > 100 | > 100 | > 100 | > 100 | > 100 | > 100 | > 100 | > 100 | > 100 | > 100 | > 100 | > 100 | > 100 | > 100 | > 100 | > 100
CC(=O)N1N=C(c2ccc(Nc3nc(Nc4ccc(F)cc4)nc(Nc4ccc(Cl)cc4)n3)cc2)CC1c1ccc(N(C)C)cc1 (stereo not given) | 3.75 | 23.4 | 4.2 | 30.9 | 9.51 | 31.7 | 6.82 | > 31.2 | 2.01 | 16 | 3.18 | > 64.8 | 5.68 | 20.9 | 1.63 | 5.33 | 5.05 | 17.5 | 5.23 | > 100
Nc1cc(N)cc(Cc2ccccc2)c1 |  | > 100 |  | > 100 |  | > 100 |  | > 100 |  | > 100 |  | > 100 |  | > 100 |  | > 100 |  | > 100 |  | > 100
CCOC(=O)C(O)Cc1cnc2ccccc2n1 (stereo not given) |  | > 100 |  | > 100 |  | > 100 |  | > 100 |  | > 100 |  | > 100 |  | > 100 |  | > 100 |  | > 100 |  | > 100
CC(=O)OC1CC2(O)C(CCC3(C)C(c4ccc(=O)oc4)CCC32O)C2(C)CCC(OC3OC(CO)C(O)C(O)C3O)C=C12 (stereo not given) | 0.0294 | 0.126 | < 0.01 | 0.015 | 0.0282 | 0.0949 | 0.0447 | 0.717 | 0.0402 | 0.837 | 0.0248 | 0.125 | 0.0342 | 0.139 | 0.0199 | 0.0538 | 0.0101 | 0.0661 | < 0.01 | 0.115
